This is an account of results in patent US9249125B2, “Pyrazole derivatives as p38 MAP inhibitors” (RESPIVERT LIMITED, priority 2012, dated 2016).

In one data set the target is GSK3α (Homo sapiens (Human), UniProt P49840). As to the kind of experiment: GSK 3α enzyme inhibition (FRET, Z-LYTE). In kind it is biochemical. An outline of the steps: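 Phosphorylation was read as the donor (coumarin) to acceptor (fluorescein) ratio after a 1 hr protease step destroying non-phosphorylated peptide. Before this, compound (4–0.004 μg/mL stocks) sat 2 hr at RT with GSK3α (500 ng/mL stock), followed by 1 hr kinase reaction with 8 μM peptide and 40 μM ATP stocks.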

A further data set has as its system HRV16. Put plainly: HRV16 induced CPE in MRC5 cells. The note with it: for IC50: Human rhinovirus sp., HRV16, MRC5, read-out: HRV induced CPE in MRC5 Cells IC50; for HRV induced CPE in MRC5 Cells % Inhibition Observed: screened at concentrations up to 0.32 ng/mL. In kind it is cell-based, human rhinovirus. How it is done: The supernatants are aspirated, and then fresh media added followed by incubation for 4 days. Where appropriate, cells are pre-incubated with compound or DMSO for 2 hr, and the compounds and DMSO added again after washout of the virus.
Supernatants are aspirated and incubated with methylene blue solution (100 μL, 2% formaldehyde, 10% methanol and 0.175% Methylene Blue) for 2 hr at RT. […] The percentage inhibition for each well is calculated. The IC50 value is calculated from the concentration-response curve generated by the serial dilutions of the test compounds.

A further data set relates to PBMC cells. Put plainly: Cell mitosis assay. Format: cell-based, human. How it is done: Peripheral blood mononucleocytes (PBMCs) from healthy subjects are separated from whole blood (Quintiles, London, UK) using a density gradient (Histopaque-1077, Sigma-Aldrich, Poole, UK). The PBMCs (3 million cells per sample) are subsequently treated with 2% PHA (Sigma-Aldrich, Poole, UK) for 48 hr, followed by a 20 hr exposure to varying concentrations of test compounds. At 2 hr before collection, PBMCs are treated with demecolcine (0.1 μg/mL) (Invitrogen, Paisley, UK,) to arrest cells in metaphase. To observe mitotic cells, PBMCs are permeabilised and fixed by adding Intraprep (50 μL) (Beckman Coulter, France), and stained with anti-phospho-histone 3 (0.26 ng/L) (#9701; Cell Signalling, Danvers, Mass.) and propidium iodide (1 mg/mL) (Sigma-Aldrich, Poole, UK,) as previously described (Muehlbauer P. A. and Schuler M. J., Mutation Research, 2003, 537:117-130). Fluorescence is observed using an ATTUNE flow cytometer (Invitrogen, Paisley, UK), gating for lymphocytes.

Another data set concerns RSV A2. As to the kind of experiment: RSV induced F-protein expression in primary bronchial epithelial cells. Format: cell-based, respiratory syncytical virus. The note with it: for RSV induced F-protein in HBECs % Inhibition Observed: screened at concentrations up to 0.04 μg/mL. Here is the method:
Normal human bronchial epithelial cells (NHBEC) grown in 96 well plates are infected with RSV A2 (Strain A2, HPA, Salisbury, UK) at an MOI of 0.001 in the LHC8 Media:RPMI-1640 (50:50) containing 15 mM magnesium chloride and incubated for 1 hr at 37° C. for adsorption. The cells are then washed with PBS (3×200 μL), fresh media (200 μL) is added and incubation continued for 4 days. Where appropriate, cells are pre-incubated with the compound or DMSO for 2 hr, and then added again after washout of the virus.
The cells are fixed with 4% formaldehyde in PBS solution (50 μL) for 20 min, washed with WB (3×200 μL), (washing buffer, PBS including 0.5% BSA and 0.05% Tween-20) and incubated with blocking solution (5% condensed milk in PBS) for 1 hr. Cells are then washed with WB (3×200 μL) and incubated for 1 hr at RT with anti-RSV (2F7) F-fusion protein antibody (40 μL) (mouse monoclonal, lot 798760, Cat. No. ab43812, Abcam) in 5% BSA in PBS-tween. After washing, cells are incubated with an HRP-conjugated secondary antibody solution (50 μL) in 5% BSA in PBS-Tween (lot 00053170, Cat. No. P0447, Dako) and then TMB substrate (50 μL) (substrate reagent pack, lot 269472, Cat. No. DY999, R&D Systems, Inc.) was added. This reaction is stopped by the addition of 2N H2SO4 (50 μL) and the resultant signal is determined colorimetrically (OD: 450 nm with a reference wavelength of 655 nm) in a microplate reader (Varioskan® Flash, ThermoFisher Scientific).
Cells are then washed and a 2.5% crystal violet solution (50 μL) (lot 8656, Cat. No. PL7000, Pro-Lab Diagnostics) is applied for 30 min. After washing with WB, 1% SDS in distilled water (100 μL) is added to each well, and plates are shaken lightly on the shaker for 1 hr prior to reading the absorbance at 595 nm. The measured OD450-655 readings are corrected to the cell number by dividing the OD450-655 by the OD595 readings. The percentage inhibition for each well is calculated and the IC50 value is calculated from the concentration-response curve generated from the serial dilutions of compound.

The test system of data set [1] is LPS-induced airways neutrophilia in mice. Put plainly: LPS-induced neutrophil accumulation in mice. In kind it is in vivo. The note with it: Test Substance at 0.2 mg/mL, intra tracheal, dosed 8 hr pre-LPS challenge. Here is the method: Non-fasted Balb/c mice are dosed by the intra tracheal route with either vehicle, or the test substance at the indicated times (within the range 2-8 hr) before stimulation of the inflammatory response by application of an LPS challenge. At T=0, mice are placed into an exposure chamber and exposed to LPS (7.0 mL, 0.5 mg/mL solution in PBS) for 30 min). After a further 8 hr the animals are anesthetized, their tracheas cannulated and BALF extracted by infusing and then withdrawing from their lungs 1.0 mL of PBS via the tracheal catheter. Total and differential white cell counts in the BALF samples are measured using a Neubaur haemocytometer. Cytospin smears of the BALF samples are prepared by centrifugation at 200 rpm for 5 min at RT and stained using a DiffQuik stain system (Dade Behring). Cells are counted using oil immersion microscopy. Data for neutrophil numbers in BAL are shown as mean±S.E.M. (standard error of the mean). The percentage inhibition of neutrophil accumulation is calculated for each treatment relative to vehicle treatment.

Chain of GSK3α (P49840 whole entry): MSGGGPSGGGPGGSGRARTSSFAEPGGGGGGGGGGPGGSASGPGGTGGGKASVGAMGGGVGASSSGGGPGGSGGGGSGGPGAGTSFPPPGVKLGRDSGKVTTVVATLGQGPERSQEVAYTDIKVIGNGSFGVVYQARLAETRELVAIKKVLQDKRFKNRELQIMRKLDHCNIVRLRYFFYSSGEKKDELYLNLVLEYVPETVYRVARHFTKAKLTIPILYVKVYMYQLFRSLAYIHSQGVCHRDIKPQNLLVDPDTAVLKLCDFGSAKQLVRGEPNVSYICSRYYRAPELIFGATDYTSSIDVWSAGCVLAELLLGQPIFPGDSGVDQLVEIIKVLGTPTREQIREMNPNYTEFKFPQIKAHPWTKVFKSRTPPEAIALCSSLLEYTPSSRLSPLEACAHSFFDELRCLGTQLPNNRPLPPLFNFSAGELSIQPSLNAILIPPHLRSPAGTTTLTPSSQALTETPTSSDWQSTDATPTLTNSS

Turning to `Cc1ccc(-n2nc(C(C)(C)C)cc2NC(=O)Nc2ccc(Oc3cc(Nc4ccc5[nH]ncc5c4)ncn3)c3ccccc23)cc1` [Example 23, 1-(4-((6-((1H-indazol-5-yl)amino)pyrimidin-4-yl)oxy)naphthalen-1-yl)-3-(3-(tert-butyl)-1-(p-tolyl)-1H-pyrazol-5-yl)urea], the IC50 (as a rule, the point on the concentration scale where inhibition reaches its midpoint) worked out at 12500 nM against GSK3α and 3 nM in the data set on HRV16. In addition, the “Mitosis Assay % inhibition in PBMC cells at 5 μg/mL” value (“Mitosis Assay % inhibition” below) with PBMC cells came out at 70.7%.

For the compound `Cc1ccc(-n2nc(C(C)(C)C)cc2NC(=O)Nc2ccc(Oc3ccnc(Nc4ccc5[nH]cnc5c4)n3)c3ccccc23)cc1` [Example 30, 1-(4-((2-((1H-benzo[d]imidazol-5-yl)amino)pyrimidin-4-yl)oxy)naphthalen-1-yl)-3-(3-(tert-butyl)-1-(p-tolyl)-1H-pyrazol-5-yl)urea], the “RSV induced F-protein in HBECs % Inhibition Observed” value in the data set on RSV A2 was determined as 57%. Further, at GSK3α, the IC50 was found to be 301 nM.

Take `CC(C)(C)c1cc(NC(=O)Nc2ccc(Oc3ccnc(Nc4ccc5[nH]ncc5c4)n3)c3ccccc23)n(-c2ccc(OCCN3CCOCC3)cc2)n1` [Example 12, 1-(4-((2-((1H-Indazol-5-yl)amino)pyrimidin-4-yl)oxy)naphthalen-1-yl)-3-(3-(tert-butyl)-1-(4-(2-morpholinoethoxy)phenyl)-1H-pyrazol-5-yl)urea]: in data set [1], the “% Inhibition of neutrophil accumulation in BAL” value was 46% and the “Neutrophil numbers in BAL (+/−SEM)” value is 7.6 ± 1.5 ×10^5/mL. At GSK3α, this compound displayed an IC50 of 3890 nM. Moreover, the “HRV induced CPE in MRC5 Cells % Inhibition Observed” value in the data set on HRV16 worked out at 92%. Also, in the data set on PBMC cells, the “Mitosis Assay % inhibition” value is recorded as 58.6%.

Regarding `Cc1ccc(-n2nc(C(C)(C)C)cc2NC(=O)Nc2ccc(Oc3ccnc(Nc4ccc5ncn(C)c5c4)n3)c3ccccc23)cc1` [Example 31, 1-(3-(tert-butyl)-1-(p-tolyl)-1H-pyrazol-5-yl)-3-(4-((2-((1-methyl-1H-benzo[d]imidazol-6-yl)amino)pyrimidin-4-yl)oxy)naphthalen-1-yl)urea], in the data set on RSV A2, the “RSV induced F-protein in HBECs % Inhibition Observed” value is recorded as 73%. In addition, half-maximal inhibition against GSK3α (IC50) required 1610 nM.

With `COc1ccc(-n2nc(C(C)(C)C)cc2NC(=O)Nc2ccc(Oc3ccnc(Nc4ccc5[nH]ncc5c4)n3)c3ccccc23)cc1` [Example 40, 1-(4-((2-((1H-indazol-5-yl)amino)pyrimidin-4-yl)oxy)naphthalen-1-yl)-3-(3-(tert-butyl)-1-(4-methoxyphenyl)-1H-pyrazol-5-yl)urea], the IC50 was 4.8 nM with RSV A2 (human respiratory syncytial virus, Primary bronchial epithelial cell, read-out: RSV induced F-protein in HBECs IC50) and greater than 15600 nM against GSK3α. For the same compound, in the data set with PBMC cells, the “Mitosis Assay % inhibition” value is 30.5%.

For the compound `Cc1ccc(-n2nc(C(C)(C)C)cc2NC(=O)Nc2ccc(Oc3ccnc(Nc4cccc5cc[nH]c45)n3)c3ccccc23)cc1` [Example 17], the “RSV induced F-protein in HBECs % Inhibition Observed” value in the data set with RSV A2 was 65%. Further, at GSK3α, the IC50 was greater than 16100 nM.

For `Cc1ccc(-n2nc(C(C)(C)C)cc2NC(=O)Nc2ccc(Oc3ccnc(Nc4ccc5c(ccn5C)c4)n3)c3ccccc23)cc1` [Example 18, 1-(3-(tert-butyl)-1-(p-tolyl)-1H-pyrazol-5-yl)-3-(4-((2-((1-methyl-1H-indol-5-yl)amino)pyrimidin-4-yl)oxy)naphthalen-1-yl)urea], the “RSV induced F-protein in HBECs % Inhibition Observed” value with RSV A2 is on record as 56%. The compound further gave an IC50 at GSK3α of 7080 nM.

As to `Cc1ccc(-n2nc(C(C)(C)C)cc2NC(=O)Nc2ccc(Oc3ccnc(Nc4ccc5ncsc5c4)n3)c3ccccc23)cc1` [Example 35, 1-(4-((2-(benzo[d]thiazol-6-ylamino)pyrimidin-4-yl)oxy)naphthalen-1-yl)-3-(3-(tert-butyl)-1-(p-tolyl)-1H-pyrazol-5-yl)urea], the “RSV induced F-protein in HBECs % Inhibition Observed” value in the data set on RSV A2 was 71%. This compound also displayed an IC50 on GSK3α greater than 15600 nM. The “HRV induced CPE in MRC5 Cells % Inhibition Observed” value in the data set on HRV16 is listed as 100%.

As for `Cc1ccc(-n2nc(C(C)(C)C)cc2NC(=O)Nc2ccc(Oc3ccnc(Nc4ccc5cn[nH]c5c4)n3)c3ccccc23)cc1` [Example 24, 1-(4-((2-((1H-indazol-6-yl)amino)pyrimidin-4-yl)oxy)naphthalen-1-yl)-3-(3-(tert-butyl)-1-(p-tolyl)-1H-pyrazol-5-yl)urea], the “RSV induced F-protein in HBECs % Inhibition Observed” value in the data set on RSV A2 is 45%. In addition, the concentration for half-maximal inhibition (IC50) against GSK3α amounted to 2180 nM.

For the compound `Cc1ccc(-n2nc(C(C)(C)C)cc2NC(=O)Nc2ccc(Oc3ccnc(Nc4ccc5scnc5c4)n3)c3ccccc23)cc1` [Example 34, 1-(4-((2-(benzo[d]thiazol-5-ylamino)pyrimidin-4-yl)oxy)naphthalen-1-yl)-3-(3-(tert-butyl)-1-(p-tolyl)-1H-pyrazol-5-yl)urea], the “RSV induced F-protein in HBECs % Inhibition Observed” value with RSV A2 came out at 74%. Besides, inhibition at GSK3α was half-maximal at 1620 nM (IC50).

With `Cc1cc(Nc2nccc(Oc3ccc(NC(=O)Nc4cc(C(C)(C)C)nn4-c4cccc(OCCN5CCOCC5)c4)c4ccccc34)n2)cc2cn[nH]c12` [Example 56, 1-(3-(tert-butyl)-1-(3-(2-morpholinoethoxy)phenyl)-1H-pyrazol-5-yl)-3-(4-((2-((7-methyl-1H-indazol-5-yl)amino)pyrimidin-4-yl)oxy)naphthalen-1-yl)urea], in data set [1], the “% Inhibition of neutrophil accumulation in BAL” value worked out at 38% and the “Neutrophil numbers in BAL (+/−SEM)” value is 10.2 ± 1.9 ×10^5/mL. For the same compound, the IC50 on GSK3α is greater than 13300 nM. In addition, the IC50 with HRV16 is 6.7 nM.

On to `Cc1ccc(-n2nc(C(C)(C)C)cc2NC(=O)Nc2ccc(Oc3ccnc(Nc4ccc5c(c4)ncn5C)n3)c3ccccc23)cc1` [Example 4, 1-(3-(tert-Butyl)-1-(p-tolyl)-1H-pyrazol-5-yl)-3-(4-((2-((1-methyl-1H-benzo[d]imidazol-5-yl)amino)pyrimidin-4-yl)oxy)naphthalen-1-yl)urea], for which the “RSV induced F-protein in HBECs % Inhibition Observed” value in the data set with RSV A2 stood at 96%. This compound yielded an IC50 against GSK3α of 1370 nM.

In the case of `Cc1cc(Nc2nccc(Oc3ccc(NC(=O)Nc4cc(C(C)(C)C)nn4-c4ccc(=O)n(CCN5CCOCC5)c4)c4ccccc34)n2)cc2cn[nH]c12` [Example 89, 1-(3-(tert-butyl)-1-(1-(2-morpholinoethyl)-6-oxo-1,6-dihydropyridin-3-yl)-1H-pyrazol-5-yl)-3-(4-((2-((7-methyl-1H-indazol-5-yl)amino)pyrimidin-4-yl)oxy)naphthalen-1-yl)urea], the results for the IC50 at GSK3α and in the data set with HRV16 were 2780 nM and 9.6 nM, respectively. Further, the “Mitosis Assay % inhibition” value in the data set with PBMC cells came to 26.7%.
